Measurements published in BindingDB's records for doi:10.1016/j.bmcl.2005.10.026 (Pfizer, 2005).

Assays:
[1] = Inhibition of C5a mediated human eosinophil chemotaxis
[2] = Inhibition of PAF mediated human eosinophil chemotaxis
[3] = Inhibition of Eotaxin mediated by human eosinophil chemotaxis

SMILES: C[C@@H](NC(=O)c1cccnc1Oc1ccc(F)cc1)c1cccs1 [(R)-2-(4-fluorophenoxy)-N-(1-(thiophen-2-yl)ethyl)nicotinamide]
- IC50 (Inhibition of PDE4D): < 1 nM
- IC50 [1]: 1 nM
- IC50 [2]: 1 nM
- IC50 [3]: 3 nM
